Values quoted from earlier work in patent US20040171664A1, “Compositions of cyclooxygenase-2 selective inhibitors and selective serotonin reuptake inhibitors for the treatment or prevention of a vaso-occlusive event” (Pharmacia Corporation, priority 2002, published 2004).

Assays:
[1] = tested on: coronary intimal proliferation; conditions: oral administration, swine model of restenosis
[2] = tested on: vascular smooth muscle cells; conditions: in vitro
[3] = both depressed and nondepressed patients
[4] = single dose intravenous pretreatment before coronary stenting
platelet activation = conditions: Pollock et al. 2000
restenosis = conditions: orally administered, stent implanted pig arteries

## CN(C)CCCO[C@@H]1[C@H]2OC(C)(C)O[C@H]2O[C@@H]1[C@H](O)CO.Cl [aniprilose hydrochloride]
[1]
  coronary intimal proliferation: did not prevent

## COc1cc(/C=C/C(=O)CC(=O)/C=C/c2ccc(O)c(OC)c2)ccc1O [curcumin]
[2]
  proliferation of vascular smooth muscle cells: reduced

## CNCCC(Oc1ccc(C(F)(F)F)cc1)c1ccccc1 (stereo not shown) [fluoxetine]
[3]
  survival of stroke patients: increased the survival

## C[C@H]1C[C@@H]2[C@H]([C@@H](O)C[C@@]3(C)[C@H]2CC[C@]3(O)C(=O)CO)[C@@]2(C)C=CC(=O)C=C12 [methylpridnisolone]
[4]
  change in minimal lumen diameter at 6 months: no effect

## CNCCC=C1c2ccccc2CCc2ccccc21 [nortriptyline]
[3]
  survival of stroke patients: increased the survival

## CN[C@H]1CC[C@@H](c2ccc(Cl)c(Cl)c2)c2ccccc21 [sertraline]
Platelet activation
  preventing platelet activation: particularly effective

## COc1ccc(C=CC(=O)Nc2ccccc2C(=O)O)cc1OC [tranilast, N-(3,4-dimethoxycinnamoyl) anthranilic acid]
restenosis
  rate of restenosis: lower rate
